Measured values from paper PMC10096842, “Identification of Flavone Derivative Displaying a 4′-Aminophenoxy Moiety as Potential Selective Anticancer Agent in NSCLC Tumor Cells” (Molecules, 2023).

How the values were obtained:
[1] = LogP determination (1-octanol/PBS partition, UV-vis); format: physicochemical; conditions: 1-octanol/PBS, pH 7.4, 1-octanol/PBS pH 7.4; read-out: Experimental LogP
Protocol: LogP was determined as previously described. Briefly, solutions of each APF were prepared in 1-octanol, and UV-vis spectra were acquired to determine the λmax. After having placed 2.5 mL of each solution in 10 mL conical centrifuge tubes, PBS was added (2.5 mL, pH 7.4) and the biphasic system was mixed using a vortex mixer (VELP Scientifica, Usmate Velate MB, Italy) followed by centrifugation (2000× g, 5 min). Then, the octanol phase absorption was measured at λmax. The partition coefficient Ko/w was calculated according to the following equation:Ko/w = [APF]oct/[APF]PBS = […] where Ai is the initial measured absorbance in octanol, pre-extraction, and Af is the final measured absorbance in octanol, post-extraction.

A549 NSCLC cells = experiment: MTT cell viability assay, A549; format: cell-based, human; conditions: for IC50: A549, 72 h, MTT
Protocol: The human non-small cell lung cancer (NSCLC) and Human Dermal Fibroblasts (HDF) cell lines were all obtained from the American Type Culture Collection (ATCC). The H1975 (CRL-5908™) cell line was grown in RPMI 1640 medium (ECB2000) while the A549 (CCL-185™) and HDF were grown in complete DMEM medium (ECM0095) All cultures were supplemented with 10% fetal bovine serum (FBS), 2 mM L-glutamine, 100 U/mL penicillin, and 100 µg/mL streptomycin,. All cell lines were routinely maintained in 75 cm^2 flasks in a cell incubator at 37 °C, 5% CO2, and 95% relative humidity. The cell cultures were detached by trypsinization with 0.5% trypsin in PBS containing 0.025% EDTA. All cell culture reagents were supplied by Euroclone (Milan, Italy).
The number of metabolically active cells, and thus cell viability, was assessed by a 3-(4,5-dimethylthiazol-2-yl)-2,5-diphenyltetrazolium bromide (MTT) assay as previously described. The NSCLC cell lines (A549 and H1975) and HDF were seeded in 96-well plates to reach 50% confluence at 24 h; then, the medium was removed and replaced with 0.2 mL of fresh culture medium containing increasing compound concentrations (0–160 µM). After 72 h, the medium from each well was removed and replaced with fresh medium supplemented with MTT at a final concentration of 200 µg/mL. After incubation for 4 h at 37 °C, 0.2 mL of DMSO was added to each well followed by multiwell shaking for 4 min. The absorbance was read on a multiwell scanning microplate reader (BioTek Synergy HT MicroPlate Reader Spectrophotometer, BioTek Instruments Inc., Winooski, VT, USA) at 570 nm using the extraction buffer as a blank. The optical density in the control group (untreated cells) was considered as 100% viability. The relative cell viability (%) was calculated as (OD570 of treated samples/OD570 of untreated samples) × 100. Dose-dependent curves were therefore generated for the cytotoxic studies. The 50% inhibiting concentration (IC50) was determined by non-linear regression analysis with a three-parameter fit by utilizing SigmaPlot 12.0 Software, USA, Systat Software, Inc. SigmaPlot for Windows. Each experiment was performed at least five times in triplicate.

H1975 cells [2] = experiment: Annexin V-FITC/PI apoptosis flow cytometry, H1975; format: cell-based, human
Protocol: Apoptosis was analyzed by flow cytometry using an Annexin V-FITC apoptosis detection kit (Biolegend, San Diego, CA, USA), according to the manufacturer’s instructions. A549, H1975, and HDF cells were treated with […] concentrations of APF-1 (1.5 and 3 µM). […] Briefly, control and treated cells were trypsinized, washed twice with ice-cold PBS, and resuspended in 1X Annexin binding buffer at a final concentration of 1.0 × 10^6 cell/mL. A total of 5 µL Annexin V-FITC and 10 µL Propidium Iodide (PI) were added to the cell suspension and the mixture was incubated for 15 min at rt in the dark. Samples were analyzed using the Guava EasyCyte flow cytometer (Merk-Millipore, Louis Missouri, USA). A total of 5000 events were acquired for each sample. Annexin V-FITC was detected as a green fluorescence (λex = 488 nm; λem = 516 nm) and PI was detected as a red fluorescence (λex = 535 nm; λem = 617 nm). Early apoptosis is defined by Annexin V+/PI− staining, late apoptosis is defined by Annexin V+/PI+ staining, and necrosis is defined by Annexin V−/PI+ staining.

H1975 cells [3] = experiment: Cell cycle analysis (PI, flow cytometry), H1975; format: cell-based, human; conditions: H1975, 3 µM, 24 h
Protocol: (§1) Cell cycle analyses were performed by using a Guava easyCyte flow cytometer (Merk-Millipore, MA, USA) and the DNA content was determined by propidium iodide (PI) method as previously described. Briefly, A549, H1975, and HDF were treated with APF-1 at 1.5 and 3 µM concentrations for 24 h. Cells were harvested, washed twice with cold PBS, and fixed with 70% ice-cold ethanol and kept at […] for 2 h. The fixed cells were centrifugated at 4 °C and suspended in a master mix solution containing PBS, PI (40 µg/mL), and RNase (100 µg/mL) for 30 min at 37 °C in the dark. Samples were run through the Guava easyCyte flow cytometer set to internal cell cycle analysis protocol and 5000 cells per sample were measured. The percentage of cell cycle phases (G0/G1, S, and G2/M) was quantified using MultiCycle AV Cell Cycle in FCS Express 7 software (DeNovo Software, Pasadena, CA, USA). The experiment was performed three times in triplicate.

A549 cells = experiment: Cell cycle analysis (PI, flow cytometry), A549; format: cell-based, human; conditions: 24 h
Protocol: as §1

## Nc1ccc(Oc2ccc3oc(-c4cccc(Oc5ccccc5)c4)cc(=O)c3c2)cc1 [APF-1]
[1]
  logP: 3.2 ± 0.1
A549 NSCLC cells
  IC50: 4.2 ± 0.4 µM
A549 NSCLC cells; Homo sapiens
  IC50: 4 µM
A549 NSCLC cells; IC50 HDF / IC50 A549
  SI (Selectivity Index): 16
H1975 cells [2]; H1975, 1.5 µM, 24 h
  early apoptotic (Annexin V+PI−) cells: 16%
  late apoptotic (Annexin V+PI+) cells: 11%
H1975 cells [2]; H1975, 3 µM, 24 h
  increase of early apoptosis compared to untreated cells: 2.6 fold
  increase of late apoptosis compared to untreated cells: 6.5 fold
H1975 cells [2]; Homo sapiens, NCI-H1975, 24 h, H1975, 1.5 µM, 24 h, read-out: live/viable (Annexin V−PI−) cells
  viability at 1.5 µM: 70.9%
H1975 cells [2]; Homo sapiens, NCI-H1975, 24 h, H1975, 3 µM, 24 h, read-out: live/viable (Annexin V−PI−) cells
  viability at 3 µM: 46%
H1975 cells [2]; cancer cells (H1975), Figure 3D
  induction of apoptosis (sum of early and late apoptosis) with respect to untreated cells: about 4 times
H1975 cells [3]
  cells in G0/G1 phase: 24%
  cells in G2/M phase: 70%
  cells in S phase: 5.6%
  increase in G2/M phase population compared to untreated cells: 2 fold
A549 cells; A549, 1.5 µM
  increase in G2/M phase compared to the untreated cells: 2.8 fold
A549 cells; A549, 3 µM
  cells in G2/M phase: 75%
